In ChEMBL document CHEMBL1123316, “Synthesis and biological activity of substance P C-terminal hexapeptide analogues: structure-activity studies” (1986):
Where a SMILES comes first, the peptide text is derived from it. [ ]: non-standard residue; d: D form. Orn = NCCC[C@H](N)C(=O)O

Experiments:
Rattus norvegicus = species: Rattus norvegicus; experiment: In vitro potency as spasmogen relative to SP against rat colon muscularis mucosae
Cavia porcellus = species: Cavia porcellus; experiment: In vitro potency as spasmogen relative to SP against guinea pig ileum

## H-QFFGLM-NH2
Rattus norvegicus
  Relative potency: 0.076
Cavia porcellus
  Relative potency: 0.3

## H-VFFGLM-NH2
Rattus norvegicus
  Relative potency: 0.15
Cavia porcellus
  Relative potency: 0.067

## CSCC[C@H](NC(=O)[C@H](CC(C)C)NC(=O)CNC(=O)[C@H](Cc1ccccc1)NC(=O)[C@H](Cc1ccccc1)NC(=O)[C@@H](N)CCCN)C(N)=O (H-[Orn]FFGLM-NH2)
Rattus norvegicus
  Relative potency: 0.36
Cavia porcellus
  Relative potency: 0.39

## CO[C@H](C)[C@H](N)C(=O)N[C@@H](Cc1ccccc1)C(=O)N[C@@H](Cc1ccccc1)C(=O)NCC(=O)N[C@@H](CC(C)C)C(=O)N[C@@H](CCSC)C(N)=O (H-T(Me)FFGLM-NH2)
Rattus norvegicus
  Relative potency: 0.16
Cavia porcellus
  Relative potency: 0.066

## H-TFFGLM-NH2
Rattus norvegicus
  Relative potency: 0.056
Cavia porcellus
  Relative potency: 0.021
